ChEMBL document CHEMBL3046293, “Fungicidal Activities of -Methoxyphenylacetic Acid Derivatives” (2002)

Experiments:
Type in all cases: functional
[1] = system: Pyricularia oryzae; experiment: Fungicidal activity against Magnaporthe oryzae Cav. race 003 assessed as rice blast disease control at 500 ppm treated 24 hr before inoculation by preventive manner
[2] = system: Botrytis cinerea; experiment: Fungicidal activity against Botryotinia fuckeliana assessed as cucumber gray mold disease control at 500 ppm treated 24 hr before inoculation by preventive manner
[3] = system: Podosphaera fuliginea; experiment: Fungicidal activity against Podosphaera fuliginea assessed as cucumber powdery mildew disease control at 500 ppm treated 24 hr before inoculation by preventive manner
[4] = system: Podosphaera fuliginea; experiment: Fungicidal activity against Podosphaera fuliginea assessed as cucumber powdery mildew disease control at 125 ppm treated 24 hr before inoculation by preventive manner
[5] = system: Podosphaera fuliginea; experiment: Fungicidal activity against Podosphaera fuliginea assessed as cucumber powdery mildew disease control at 7.8 ppm treated 24 hr before inoculation by preventive manner
[6] = system: Podosphaera fuliginea; experiment: Fungicidal activity against Podosphaera fuliginea assessed as cucumber powdery mildew disease control at 31.3 ppm treated 24 hr before inoculation by preventive manner
[7] = system: Pyricularia oryzae; experiment: Fungicidal activity against Magnaporthe oryzae Cav. race 003 assessed as rice blast disease control at 125 ppm treated 24 hr before inoculation by preventive manner
[8] = system: Botrytis cinerea; experiment: Fungicidal activity against Botryotinia fuckeliana assessed as cucumber gray mold disease control at 7.8 ppm treated 24 hr before inoculation by preventive manner

| Structure (SMILES) | Activity [1] [%] | Activity [2] [%] | Activity [3] [%] | Activity [4] [%] | Activity [5] [%] | Activity [6] [%] | Activity [7] [%] | Activity [8] [%] |
| --- | --- | --- | --- | --- | --- | --- | --- | --- |
| CNC(=O)C(OC)c1cccc(Oc2ccccc2)c1 (stereo not drawn) | <90 | <50 | <90 | – | – | – | – | – |
| COC(=O)C(OC)c1cccc(COc2cccc(C)c2C)c1 (stereo not drawn) | 90 | <50 | <90 | – | – | – | – | – |
| CNC(=O)C(OC)c1cccc(Oc2ccc(C)c(C)c2)c1 (stereo not drawn) | <90 | <50 | – | 90 | – | – | – | – |
| COC(=O)C(OC)c1cccc(COc2ccc(Cl)cc2)c1 (stereo not drawn) | <90 | <50 | – | 90 | – | – | – | – |
| COC(=O)C(OC)c1cccc(COc2ccc(Cl)cc2Cl)c1 (stereo not drawn) | <90 | <50 | – | – | 90 | – | – | – |
| CNC(=O)C(OC)c1cccc(Oc2ccc(C)cc2)c1 (stereo not drawn) | <90 | <50 | <90 | – | – | – | – | – |
| CNC(=O)C(OC)c1cccc(Oc2cc(C)cc(C)c2)c1 (stereo not drawn) | <90 | <50 | – | – | – | 90 | – | – |
| COC(C(=O)SC)c1cccc(COc2cc(C)ccc2C)c1 (stereo not drawn) | <90 | <50 | <90 | – | – | – | – | – |
| CNC(=O)C(OC)c1cccc(COc2ccccc2F)c1 (stereo not drawn) | 90 | 50 | – | – | – | 90 | – | – |
| COC(=O)C(OC)c1cccc(COc2cccc(C)c2)c1 (stereo not drawn) | <90 | <50 | – | 90 | – | – | – | – |
| CNC(=O)C(OC)c1cccc(COc2ccc(C)cc2)c1 (stereo not drawn) | 90 | <50 | – | – | – | 90 | – | – |
| CNC(=O)C(OCOC)c1cccc(COc2cc(C)ccc2C)c1 (stereo not drawn) | <90 | <50 | <90 | – | – | – | – | – |
| CNC(=O)C(OC)c1cccc(OCc2ccc(Cl)cc2)c1 (stereo not drawn) | <90 | <50 | <90 | – | – | – | – | – |
| COC(=O)C(OC)c1cccc(COc2ccccc2)c1 (stereo not drawn) | <90 | <50 | – | 90 | – | – | – | – |
| COC(=O)C(OC)c1cccc(Oc2cc(C)cc(C)c2)c1 (stereo not drawn) | <90 | <50 | 90 | – | – | – | – | – |
| CNC(=O)C(OC)c1cccc(COc2ccc(C)cc2OC)c1 (stereo not drawn) | <90 | 50 | <90 | – | – | – | – | – |
| CCCCOC(C(=O)NC)c1cccc(COc2cc(C)ccc2C)c1 (stereo not drawn) | <90 | <50 | – | – | – | 90 | – | – |
| CNC(=O)C(OC(C)=O)c1cccc(COc2cc(C)ccc2C)c1 (stereo not drawn) | <90 | <50 | <90 | – | – | – | – | – |
| COC(=O)C(OC)c1cccc(COc2ccccc2C)c1 (stereo not drawn) | – | 50 | – | 90 | – | – | 90 | – |
| COC(=O)C(OC)c1cccc(COc2cc(Cl)cc(Cl)c2)c1 (stereo not drawn) | <90 | <50 | – | 90 | – | – | – | – |
| CNC(=O)C(OC)c1cccc(Oc2ccc(Cl)cc2)c1 (stereo not drawn) | <90 | <50 | <90 | – | – | – | – | – |
| CCOC(C(=O)NC)c1cccc(COc2cc(C)ccc2C)c1 (stereo not drawn) | <90 | <50 | – | – | 90 | – | – | – |
| CNC(=O)C(OC)c1cccc(CSc2cc(C)ccc2C)c1 (stereo not drawn) | <90 | <50 | 90 | – | – | – | – | – |
| COC(C(=O)O)c1cccc(COc2cc(C)ccc2C)c1 (stereo not drawn) | 90 | <50 | – | – | 90 | – | – | – |
| CNC(=O)C(OC)c1cccc(COc2ccccc2Cl)c1 (stereo not drawn) | 90 | <50 | – | – | 90 | – | – | – |
| CCCCNC(=O)C(OC)c1cccc(COc2cc(C)ccc2C)c1 (stereo not drawn) | <90 | <50 | <90 | – | – | – | – | – |

| Structure (SMILES) | Activity [1] [%] | Activity [2] [%] | Activity [3] [%] | Activity [4] [%] | Activity [5] [%] | Activity [6] [%] | Activity [7] [%] | Activity [8] [%] |
| --- | --- | --- | --- | --- | --- | --- | --- | --- |
| CNC(=O)C(OC)c1cccc(COc2ccccc2C)c1 (stereo not drawn) | 90 | – | – | – | 90 | – | – | 50 |
| CNC(=O)C(OC)c1cccc(COc2ccc(Cl)cc2)c1 (stereo not drawn) | <90 | <50 | – | – | – | 90 | – | – |
| CNC(=O)C(OC)c1cccc(COc2ccc(Cl)cc2C)c1 (stereo not drawn) | – | – | – | – | 90 | – | 90 | 50 |
| CCc1ccccc1OCc1cccc(C(OC)C(=O)OC)c1 (stereo not drawn) | <90 | <50 | <90 | – | – | – | – | – |
| CNC(=O)C(OC)c1cccc(COc2ccccc2)c1 (stereo not drawn) | <90 | 50 | – | 90 | – | – | – | – |
| CNC(=O)C(OC)c1cccc(COc2cccc(Cl)c2)c1 (stereo not drawn) | <90 | 50 | – | – | – | 90 | – | – |
| CNC(=O)C(OC)c1cccc(COc2c(C)cccc2C)c1 (stereo not drawn) | <90 | <50 | <90 | – | – | – | – | – |
| COC(C(=O)N(C)C)c1cccc(COc2cc(C)ccc2C)c1 (stereo not drawn) | 90 | <50 | – | 90 | – | – | – | – |
| COC(=O)C(OC)c1cccc(Oc2ccc(C)c(C)c2)c1 (stereo not drawn) | <90 | <50 | 90 | – | – | – | – | – |
| CNC(=O)C(OC)c1cccc(COc2cc(Cl)cc(Cl)c2)c1 (stereo not drawn) | <90 | <50 | – | – | – | 90 | – | – |
| CNC(=O)C(OC)c1cccc(COc2ccc(C)cc2Cl)c1 (stereo not drawn) | – | 50 | – | – | 90 | – | 90 | – |
| CNC(=O)C(OC)c1cccc(COc2ccccc2OC)c1 (stereo not drawn) | <90 | <50 | <90 | – | – | – | – | – |
| COC(=O)C(OC)c1cccc(COc2ccc(C)cc2C)c1 (stereo not drawn) | 90 | 50 | <90 | – | – | – | – | – |
| COC(=O)C(OC)c1cccc(COc2ccccc2Cl)c1 (stereo not drawn) | – | 50 | – | 90 | – | – | 90 | – |
| CNC(=O)C(OC)c1cccc(COC(=O)c2ccc(Cl)cc2)c1 (stereo not drawn) | <90 | <50 | <90 | – | – | – | – | – |
| COC(=O)C(OC)c1cccc(COc2cc(C)ccc2C)c1 (stereo not drawn) | – | 50 | <90 | – | – | – | 90 | – |
| COC(C(N)=O)c1cccc(COc2cc(C)ccc2C)c1 (stereo not drawn) | 90 | <50 | – | – | – | 90 | – | – |
| CNC(=O)C(OC)c1cccc(COc2ccc(C)c(C)c2)c1 (stereo not drawn) | – | 50 | – | – | – | 90 | 90 | – |
| CCc1ccccc1OCc1cccc(C(OC)C(=O)NC)c1 (stereo not drawn) | – | 50 | – | – | 90 | – | 90 | – |
| CNC(=O)C(OC)c1cccc(COc2cccc(C)c2C)c1 (stereo not drawn) | – | – | – | – | 90 | – | 90 | 50 |
| COC(=O)C(OC)c1cccc(COc2ccc(C)cc2)c1 (stereo not drawn) | <90 | <50 | – | 90 | – | – | – | – |
| CNC(=O)C(OC)c1cccc(COc2cc(C)ccc2Cl)c1 (stereo not drawn) | – | – | – | – | 90 | – | 90 | 50 |
| CNC(=O)C(OC)c1cccc(Oc2cccc(C)c2)c1 (stereo not drawn) | <90 | <50 | <90 | – | – | – | – | – |
| CNC(=O)C(OC)c1cccc(COc2ccc(Cl)cc2Cl)c1 (stereo not drawn) | <90 | <50 | – | – | 90 | – | – | – |
| CNC(=O)C(OC)c1cccc(COc2cccc(C)c2)c1 (stereo not drawn) | 90 | <50 | – | 90 | – | – | – | – |
